Assays:
[1] = cited from earlier work; for time to peak concentration: metabolites after a dose of 5 g of phenylbutyrate; for mean peak concentration: metabolites after oral dosing of phenylbutyrate; for elimination half-life: oral phenylbutyrate, estimated
[2] = system: E1α-phospho/E1α, E2, BCATm, BCATc; assay: Western blotting of BCKD complex and BCAT isozymes in lymphoblast cells; assay type: cell-based, human; details: for phosphorylation state of E1α: CIC 1 mM 2 h alone, or together with phenylbutyrate
[3] = molecular target: T1, BCKDC (Homo sapiens, UniProt P12694+P21953); assay: Leucine oxidation in lymphoblast cells in presence of CIC; assay type: cell-based; parameters: Transformed lymphoblast cell lines were available from all 5 MSUD patients and from 2 controls to measure BCKDC activity; endogenous in cells; details: both control cells, CIC 1 mM
T1 sequence (P12694 46-445): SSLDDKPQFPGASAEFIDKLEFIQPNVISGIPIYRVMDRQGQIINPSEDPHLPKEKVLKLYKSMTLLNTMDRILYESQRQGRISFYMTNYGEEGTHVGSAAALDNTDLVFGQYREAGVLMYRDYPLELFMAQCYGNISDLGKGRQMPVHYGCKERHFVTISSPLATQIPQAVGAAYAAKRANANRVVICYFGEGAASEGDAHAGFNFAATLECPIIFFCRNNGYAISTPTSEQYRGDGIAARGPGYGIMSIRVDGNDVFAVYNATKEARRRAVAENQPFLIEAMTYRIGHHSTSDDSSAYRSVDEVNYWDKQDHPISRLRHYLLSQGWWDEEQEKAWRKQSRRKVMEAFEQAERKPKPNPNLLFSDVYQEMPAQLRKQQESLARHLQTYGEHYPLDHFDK
T1 sequence (P21953 51-392): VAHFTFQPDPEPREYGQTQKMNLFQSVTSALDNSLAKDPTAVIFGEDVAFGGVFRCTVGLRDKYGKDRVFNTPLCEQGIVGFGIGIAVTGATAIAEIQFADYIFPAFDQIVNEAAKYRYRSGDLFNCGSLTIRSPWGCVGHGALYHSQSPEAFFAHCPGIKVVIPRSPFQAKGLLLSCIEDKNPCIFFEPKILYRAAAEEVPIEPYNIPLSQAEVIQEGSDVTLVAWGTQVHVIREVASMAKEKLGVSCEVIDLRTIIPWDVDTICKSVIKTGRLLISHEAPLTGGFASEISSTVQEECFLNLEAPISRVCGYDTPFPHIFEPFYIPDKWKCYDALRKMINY
Method: FIGS. 8A-8C. FIGS. 8A and 8B show leucine oxidation in presence of CIC in lymphoblast cells from control subjects (C-660, C-661) and MSUD patients (P-1, -2, -3, -4, -5) untreated or treated with 1 mM phenylbutyrate for 48 h. Leucine oxidation was measured by using radioactive assay as described in Materials and Methods and is expressed in pmol CO2 released/min/mg protein. CIC was added to all reactions in 1 mM concentration. Values are means±SD (n=3), * p≥0.05, **p≥0.01. […] Images are representative of two independent experiments.
Because phenylbutyrate affects E1α phosphorylation state in vivo (see FIG. 5), leucine oxidation was measured in the same cell lines as in FIG. […] with CIC in the assay. […] Changes in BCAT isoenzyme activity also impacts BCKA production, in specific cases. All patient cell lines accumulated more KIC than observed in control cell lines.

[4] = molecular target: branched-chain alpha-keto acid dehydrogenase kinase (BDK) (Homo sapiens, UniProt O14874); details: Harris et al., 1982; cited from earlier work
[5] = substrate: O=C(O)CCCc1ccccc1; assay: E1 catalyzed decarboxylase activity (DCPIP assay); assay type: biochemical; details: other: E1 catalyzed decarboxylase activity, [+] Phenylbutyrate
Method: (§1) To determine the effect of phenylbutyrate on individual BCAA catabolic enzymes, activities of mitochondrial branched chain amino transferase (BCATm) and BCKDC enzymes were measured with and without phenylbutyrate using purified recombinant enzymes. BCATm generates the BCKA products that are elevated in MSUD and are the substrates for BCKDC. BCATm activity was measured at pH 8.0 and 298 K as described in Example 2. Kinetics of the E1 decarboxylase reaction with and without phenylbutyrate were determined in the presence of an artificial electron acceptor 2, 6-dichlorophenolindophenol (DCPIP). The assay mixture contained 100 mM potassium phosphate, pH 7.5, 2.0 mM MgCl2, 0.2 mM thiamin diphosphate (ThDP) and 0.1 mM DCPIP. The rate of decarboxylation at 30° C. was measured by monitoring the reduction of the dye at 600 nm (24, 25). For the overall BCKDC activity assay, the enzymes were exchanged into phosphate buffer (30 mM potassium phosphate, pH 7.5) containing 5 mM DTT using a PD-10 column and the enzyme concentrations were calculated from the absorption maxima at 280 nm. The protein complex was reconstituted with E1, lipoylated E2 (lip-E2) and E3 at a molar ratio of 12:1:55, in which lip-E2 exists as a 24-mer. The assay mixture contained 30 mM potassium phosphate pH 7.5, 100 mM NaCl, 3 mM NAD^+, 0.4 mM CoA, 2 mM MgCl2, 2 mM DTT, 0.1% Triton X-100, and 2 mM ThDP. The overall reaction was monitored by formation of NADH at 340 nm. The apparent rate constants (kapp) at different substrate concentrations for all of the above assays were determined from the absorption changes at the individual wavelength maximum. The kapp rate constants were fit using the following equation: kapp=kcat[S]/(Km+[S])

[6] = substrate: O=C(O)CCCc1ccccc1; assay: Overall BCKDC activity assay (reconstituted E1, lip-E2, E3; NADH formation); assay type: biochemical; details: other: Activity of BCKDC, [+] Phenylbutyrate
Method: as §1

[7] = substrate α-ketoisocaproate (KIC)
[8] = substrate α-ketoisovalerate (KIV)

## O=C(O)Cc1ccccc1 [phenylacetate]
[1]
  time to peak concentration: around 3.5 h
  mean peak concentration: 45.3 µg/mL
  elimination half-life: 1.3 h

## NC(=O)CC[C@H](NC(=O)Cc1ccccc1)C(=O)O [phenylacetateglutamine]
[1]
  time to peak concentration: around 3.5 h
  mean peak concentration: 62.8 µg/mL
  elimination half-life: 2.4 h

## CC(C)CC(Cl)C(=O)O (stereo not drawn) [CIC, Alpha-chloroisocaproate]
[2]; both controls and patients 4 and 5
  phosphorylation state of E1α: decreases
[2]; lymphoblasts, CIC
  E2 or BCAT isozyme levels: did not have any effect
[2]; patients 1, 2 and 3
  phosphorylation state of E1α: no effect
[3]
  leucine oxidation activity in the presence of CIC vs alone: higher activity
[4]
  inhibition of BDK: known inhibitor

B1: E1 (unphosphorylated) of BCKDC (Homo sapiens) (protein)
chain 1: T1 sequence (P12694 46-445)
chain 2: T1 sequence (P21953 51-392)
[5]; with KIC as substrate
  Km: 24.0 ± 2.0 µM
  kcat: 0.337 ± 0.025 s⁻¹
[5]; with KIV as substrate
  Km: 22.0 ± 2.0 µM
  kcat: 0.417 ± 0.0333 s⁻¹
[5]; with KMV as substrate
  Km: 21.0 ± 3.0 µM

B2: BCKDC (Homo sapiens) (protein)
chain 1: T1 sequence (P12694 46-445)
chain 2: T1 sequence (P21953 51-392)
[6]; substrate α-keto-β-methylvalerate (KMV)
  Km: 50.0 ± 3.0 µM
[6]; [7]
  Km: 41.0 ± 5.0 µM
  kcat: 4.25 ± 0.167 s⁻¹
[6]; [8]
  Km: 40.0 ± 5.0 µM
  kcat: 5.15 ± 0.25 s⁻¹
